The target in assay [1] is T1, HDAC8 (Homo sapiens, UniProt Q9BY41).
T1 sequence (Q9BY41 1-377): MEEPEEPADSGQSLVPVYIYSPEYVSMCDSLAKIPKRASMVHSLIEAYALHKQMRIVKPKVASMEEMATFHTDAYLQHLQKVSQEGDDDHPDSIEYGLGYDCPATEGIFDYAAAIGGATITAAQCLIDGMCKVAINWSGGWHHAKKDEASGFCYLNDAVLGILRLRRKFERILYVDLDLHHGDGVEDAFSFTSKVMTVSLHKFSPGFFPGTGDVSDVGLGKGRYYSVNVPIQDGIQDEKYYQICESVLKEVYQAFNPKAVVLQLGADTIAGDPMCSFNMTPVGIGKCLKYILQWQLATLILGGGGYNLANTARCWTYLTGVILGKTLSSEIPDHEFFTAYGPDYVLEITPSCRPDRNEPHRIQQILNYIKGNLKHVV
The assay can be described thus: HDAC8 (FDL) Fluor de Lys assay. It is filed as biochemical. On the set-up: obtained from C; Romier (academic laboratory, not a vendor).

The target of another assay is T2, zebrafish HDAC10 (Danio rerio, UniProt F1QCV2).
T2 sequence (F1QCV2 1-675): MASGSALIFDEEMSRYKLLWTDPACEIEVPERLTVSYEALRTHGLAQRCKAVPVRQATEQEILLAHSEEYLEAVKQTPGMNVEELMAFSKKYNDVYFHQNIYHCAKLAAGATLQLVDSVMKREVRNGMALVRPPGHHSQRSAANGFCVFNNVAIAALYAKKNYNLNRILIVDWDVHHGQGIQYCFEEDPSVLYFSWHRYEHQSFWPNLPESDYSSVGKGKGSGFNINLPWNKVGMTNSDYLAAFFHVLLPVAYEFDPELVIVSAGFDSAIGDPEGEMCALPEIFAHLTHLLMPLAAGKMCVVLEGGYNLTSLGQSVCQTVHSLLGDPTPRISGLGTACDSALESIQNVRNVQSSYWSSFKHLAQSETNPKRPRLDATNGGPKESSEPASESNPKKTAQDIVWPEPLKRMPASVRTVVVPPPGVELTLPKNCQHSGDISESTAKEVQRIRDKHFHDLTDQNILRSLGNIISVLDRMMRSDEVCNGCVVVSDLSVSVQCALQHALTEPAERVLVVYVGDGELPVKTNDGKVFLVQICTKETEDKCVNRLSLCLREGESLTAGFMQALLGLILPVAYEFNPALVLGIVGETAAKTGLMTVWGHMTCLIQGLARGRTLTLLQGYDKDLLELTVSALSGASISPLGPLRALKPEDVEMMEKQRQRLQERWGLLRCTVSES
The assay can be described thus: Zebrafish HDAC10 assay (zHDAC10), Ac-spermidine-AMC substrate. It is filed as biochemical.

In assay [2] the target is T3, HDAC6 (Homo sapiens, UniProt Q9UBN7).
T3 construct: purchased BPS Bioscience 50006
T3 sequence (Q9UBN7 1-1215): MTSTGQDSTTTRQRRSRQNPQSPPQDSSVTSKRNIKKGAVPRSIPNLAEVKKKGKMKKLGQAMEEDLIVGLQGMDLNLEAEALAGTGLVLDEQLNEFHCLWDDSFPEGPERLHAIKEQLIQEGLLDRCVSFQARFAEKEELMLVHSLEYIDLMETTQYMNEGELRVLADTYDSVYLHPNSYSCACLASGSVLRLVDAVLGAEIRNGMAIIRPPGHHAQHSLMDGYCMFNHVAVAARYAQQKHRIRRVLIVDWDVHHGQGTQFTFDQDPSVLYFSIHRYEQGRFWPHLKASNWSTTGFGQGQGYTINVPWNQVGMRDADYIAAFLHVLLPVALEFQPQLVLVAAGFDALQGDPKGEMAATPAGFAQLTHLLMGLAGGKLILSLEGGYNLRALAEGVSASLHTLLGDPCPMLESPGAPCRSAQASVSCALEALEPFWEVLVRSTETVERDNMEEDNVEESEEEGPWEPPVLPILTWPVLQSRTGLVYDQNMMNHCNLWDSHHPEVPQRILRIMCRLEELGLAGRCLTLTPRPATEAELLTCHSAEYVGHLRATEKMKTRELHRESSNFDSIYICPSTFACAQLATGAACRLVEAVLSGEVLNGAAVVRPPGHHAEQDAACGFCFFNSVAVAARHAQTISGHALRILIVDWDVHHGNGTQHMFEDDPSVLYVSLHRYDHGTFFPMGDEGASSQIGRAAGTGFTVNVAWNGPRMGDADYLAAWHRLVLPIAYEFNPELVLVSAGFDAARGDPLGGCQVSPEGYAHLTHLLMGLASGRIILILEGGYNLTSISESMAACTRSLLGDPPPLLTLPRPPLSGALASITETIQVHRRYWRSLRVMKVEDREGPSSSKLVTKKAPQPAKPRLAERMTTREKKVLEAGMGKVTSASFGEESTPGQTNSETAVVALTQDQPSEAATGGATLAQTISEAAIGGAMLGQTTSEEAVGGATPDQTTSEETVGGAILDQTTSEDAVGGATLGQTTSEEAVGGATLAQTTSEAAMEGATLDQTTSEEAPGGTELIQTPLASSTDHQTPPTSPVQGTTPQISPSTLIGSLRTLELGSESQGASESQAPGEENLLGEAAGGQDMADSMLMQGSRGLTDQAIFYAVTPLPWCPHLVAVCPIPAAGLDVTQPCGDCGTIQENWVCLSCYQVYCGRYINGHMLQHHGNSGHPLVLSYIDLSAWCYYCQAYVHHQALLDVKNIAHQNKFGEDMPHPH
Briefly: HDAC6 (ZMAL) fluorogenic activity assay. It is filed as biochemical. The following applies: read-out: HDAC6 (ZMAL) percent enzyme inhibition.

For assay [3], the target named is T4, HDAC1 (Homo sapiens, UniProt Q13547).
T4 construct: purchased BPS Bioscience 50051
The assay can be described thus: HDAC1 (ZMAL) fluorogenic activity assay. It is filed as biochemical. As to conditions: read-out: HDAC1 (ZMAL) percent enzyme inhibition.

The next assay addresses T5, HDAC2 (Homo sapiens, UniProt Q92769).
T5 construct: purchased BPS Bioscience 50002
Briefly: HDAC-Glo I/II assay, HDAC2. In kind it is biochemical. The following applies: recombinant human HDAC2, HDAC-Glo; read-out: pIC50 HDAC2 Glo (converted).

A further assay addresses T6, TwinStrep-GST-HDAC10 (Homo sapiens, UniProt Q969S8).
T6 construct: made in house; host or cells: Sf21 insect cells (baculovirus, pFastBac1)
T6 sequence (Q969S8 1-669): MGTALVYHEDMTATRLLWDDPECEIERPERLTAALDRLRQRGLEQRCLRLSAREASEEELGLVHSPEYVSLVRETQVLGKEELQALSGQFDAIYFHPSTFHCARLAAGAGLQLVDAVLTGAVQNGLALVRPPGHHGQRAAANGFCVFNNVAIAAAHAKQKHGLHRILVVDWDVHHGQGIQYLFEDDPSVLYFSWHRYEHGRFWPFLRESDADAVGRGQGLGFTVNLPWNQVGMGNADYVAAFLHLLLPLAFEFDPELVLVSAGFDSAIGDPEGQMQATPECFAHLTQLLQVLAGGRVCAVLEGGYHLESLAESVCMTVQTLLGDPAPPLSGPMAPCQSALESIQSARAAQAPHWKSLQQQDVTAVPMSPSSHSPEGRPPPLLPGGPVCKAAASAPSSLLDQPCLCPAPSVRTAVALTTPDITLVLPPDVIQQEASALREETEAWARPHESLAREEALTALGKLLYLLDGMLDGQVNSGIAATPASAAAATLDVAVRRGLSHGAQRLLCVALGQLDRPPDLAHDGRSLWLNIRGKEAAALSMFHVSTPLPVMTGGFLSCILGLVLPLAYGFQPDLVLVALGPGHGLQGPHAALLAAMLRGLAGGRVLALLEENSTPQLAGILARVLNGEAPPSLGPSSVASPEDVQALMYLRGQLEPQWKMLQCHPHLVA
The assay can be described thus: HDAC10 TR-FRET assay (Tubastatin-AF647-Tracer displacement). In kind it is binding. As to conditions: TR-FRET, 60 min at rt; read-out: pIC50 HDAC10 FRET (converted).

Assay [4] addresses T4, HDAC1. Briefly: HDAC-Glo I/II assay, HDAC1. In kind it is biochemical. The following applies: recombinant human HDAC1, HDAC-Glo; read-out: pIC50 HDAC1 Glo (converted).
Assay [5] has as its target T1, HDAC8. Briefly: HDAC-Glo I/II assay, HDAC8. The following applies: recombinant human HDAC8, HDAC-Glo; read-out: pIC50 HDAC8 Glo (converted). On the set-up: purchased BPS Bioscience 50008. In kind it is biochemical.
In assay [6] the target is T3, HDAC6. Briefly: HDAC-Glo I/II assay, HDAC6. In kind it is biochemical. The following applies: recombinant human HDAC6, HDAC-Glo; read-out: pIC50 HDAC6 Glo (converted).
A further assay addresses T7, HDAC3/NcoR2 complex (Homo sapiens, UniProt O15379).
T7 construct: purchased BPS Bioscience 50003
Briefly: HDAC-Glo I/II assay, HDAC3/NcoR2 complex. It is filed as biochemical. As to conditions: recombinant human HDAC3/NcoR2 complex, read-out: pIC50 HDAC3 Glo (converted).

Assay [7] addresses T8, HDAC10-nanoluciferase fusion in HeLa cells (Homo sapiens, UniProt Q969S8).
T8 sequence (Q969S8 1-669): T6 sequence (Q969S8 1-669)
Briefly: BRET intracellular target engagement assay, HDAC10.

T4 sequence (Q13547 whole entry): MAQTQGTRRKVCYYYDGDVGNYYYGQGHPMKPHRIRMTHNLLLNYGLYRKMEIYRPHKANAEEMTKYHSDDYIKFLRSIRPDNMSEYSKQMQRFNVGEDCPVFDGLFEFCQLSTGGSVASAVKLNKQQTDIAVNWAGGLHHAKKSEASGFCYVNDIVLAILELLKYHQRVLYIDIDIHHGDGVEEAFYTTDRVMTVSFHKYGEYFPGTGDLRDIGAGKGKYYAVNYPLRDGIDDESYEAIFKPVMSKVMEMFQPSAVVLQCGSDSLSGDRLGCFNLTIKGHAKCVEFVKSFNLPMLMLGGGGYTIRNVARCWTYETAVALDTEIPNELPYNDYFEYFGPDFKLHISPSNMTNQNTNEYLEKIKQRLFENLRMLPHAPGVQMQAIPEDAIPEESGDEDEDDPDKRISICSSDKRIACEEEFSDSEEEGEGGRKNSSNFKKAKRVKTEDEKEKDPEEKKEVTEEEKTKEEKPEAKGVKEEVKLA
T7 sequence (O15379 whole entry): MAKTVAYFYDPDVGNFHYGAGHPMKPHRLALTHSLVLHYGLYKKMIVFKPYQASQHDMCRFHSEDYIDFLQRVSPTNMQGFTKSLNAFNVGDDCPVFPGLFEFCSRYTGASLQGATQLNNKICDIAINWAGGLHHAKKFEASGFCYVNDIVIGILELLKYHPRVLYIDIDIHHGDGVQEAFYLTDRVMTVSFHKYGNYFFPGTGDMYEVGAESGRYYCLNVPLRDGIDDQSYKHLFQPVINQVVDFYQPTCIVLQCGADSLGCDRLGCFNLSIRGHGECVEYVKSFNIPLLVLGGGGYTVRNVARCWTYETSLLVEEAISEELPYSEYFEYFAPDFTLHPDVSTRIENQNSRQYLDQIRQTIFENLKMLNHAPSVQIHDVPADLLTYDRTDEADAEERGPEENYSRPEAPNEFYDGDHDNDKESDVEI
T7 sequence (Q9Y618 395-489 partner limits assumed): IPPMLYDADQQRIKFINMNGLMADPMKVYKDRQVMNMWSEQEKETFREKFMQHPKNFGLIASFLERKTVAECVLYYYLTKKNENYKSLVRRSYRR
T5 sequence (Q92769 whole entry): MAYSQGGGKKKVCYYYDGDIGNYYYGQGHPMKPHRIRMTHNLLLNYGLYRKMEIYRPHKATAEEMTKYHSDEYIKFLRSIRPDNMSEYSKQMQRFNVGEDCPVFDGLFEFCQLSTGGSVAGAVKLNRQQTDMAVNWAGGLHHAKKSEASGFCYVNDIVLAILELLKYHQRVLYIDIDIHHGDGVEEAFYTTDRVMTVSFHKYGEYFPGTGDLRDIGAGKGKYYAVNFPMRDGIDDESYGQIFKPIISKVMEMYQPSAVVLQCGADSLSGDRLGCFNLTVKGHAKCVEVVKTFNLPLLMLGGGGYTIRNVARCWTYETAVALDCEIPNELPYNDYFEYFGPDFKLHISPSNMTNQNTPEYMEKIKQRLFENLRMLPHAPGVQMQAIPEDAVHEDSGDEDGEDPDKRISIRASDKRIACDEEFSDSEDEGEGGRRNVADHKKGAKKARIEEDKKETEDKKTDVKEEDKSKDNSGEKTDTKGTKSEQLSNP

For the compound `O=C(NO)C1CCN(CCCc2ccccc2)CC1` [DH53, N-Hydroxy-1-(3-phenylpropyl)-piperidine-4-carboxamide], the inhibition at 1 µM at HDAC8 [1] (at 1 μM, read-out: HDAC8 (FDL) percent enzyme inhibition) was 20%; on zebrafish HDAC10 (at 1 μM, read-out: zHDAC10 percent enzyme inhibition), 19%; on HDAC6 [2] it was -23%; at HDAC1 [3] it was 2%. For the same compound, the inhibition at 10 µM at HDAC8 [1] (at 10 μM, read-out: HDAC8 (FDL) percent enzyme inhibition) was 48%; on zebrafish HDAC10 (at 10 μM, read-out: zHDAC10 percent enzyme inhibition), 68%; on HDAC6 [2], -3%; on HDAC1 [3], 29%. On zebrafish HDAC10 (at 0.1 μM, read-out: zHDAC10 percent enzyme inhibition), the inhibition at 0.1 µM was 0%.
For `O=C(NO)C1CCN(CCNCc2ccccc2)CC1` [DH79, 1-(2-(Benzylamino)ethyl)-N-hydroxypiperidine-4-carboxamide], the IC50 is 2 ± 0.3 µM against HDAC8 [1] and 0.064 ± 0.006 µM against zebrafish HDAC10. Besides, the figures for the inhibition at 1 µM at HDAC6 [2] and on HDAC1 [3] were -15% and 6%, respectively. Also, the figures for the inhibition at 10 µM at HDAC6 [2] and at HDAC1 [3] were 0% and 20%, respectively.
For the compound `CN(CCCC(=O)NO)CCNS(=O)(=O)c1ccccc1` [DKFZ-758, N-Hydroxy-4-(methyl(2-(phenylsulfonamido)ethyl)amino)butanamide], the IC50 on HDAC2 was over 100 µM; at TwinStrep-GST-HDAC10, 0.0316 µM; at HDAC1 [4], 25.1 µM; at HDAC8 [5], 6.31 µM; at HDAC6 [6], 6.31 µM; at HDAC3/NcoR2 complex, over 100 µM.
Consider `CN(CCCC(=O)NO)CCNC(=O)c1ccc2ccccc2c1` [DKFZ-769, N-(2-((4-(Hydroxyamino)-4-oxobutyl)(methyl)amino)ethyl)-2-naphthamide], for which the IC50 at HDAC2 was 5.01 µM; on TwinStrep-GST-HDAC10 it was 0.00501 µM; at HDAC1 [4], 2.51 µM; at HDAC8 [5], 1.58 µM; on HDAC6 [6] it was 1.26 µM; on HDAC3/NcoR2 complex it was about 39.8 µM.
With `CN(CCCC(=O)NO)CCc1nc2ccccc2[nH]1` [DKFZ-773, 4-((2-(Benzimidazol-2-yl)ethyl)(methyl)amino)-N-hydroxybutanamide], the IC50 on HDAC2 was 25.1 µM; on TwinStrep-GST-HDAC10 it was 0.00631 µM; in [7], 0.126 µM; on HDAC1 [4] it was 10 µM; at HDAC8 [5], 5.01 µM; on HDAC6 [6], 1 µM. In addition, the IC50 at HDAC3/NcoR2 complex is over 100 µM. The “HDAC10/6 fold selectivity (BRET)” value in assay [7] (HDAC10 over HDAC6, from BRET) is on record as 315 fold.
For `CN(CCCC(=O)NO)CCNC(=O)c1ccc(O)c2ccccc12` [DKFZ-776, 4-Hydroxy-N-(2-((4-(hydroxyamino)-4-oxobutyl)(methyl)amino)ethyl)-1-naphthamide], the IC50 is 15.8 µM at HDAC2; 0.00501 µM on TwinStrep-GST-HDAC10; 7.94 µM at HDAC1 [4]; 2 µM at HDAC8 [5]; 0.631 µM on HDAC6 [6]; over 100 µM on HDAC3/NcoR2 complex.
In the case of `CN(CCCC(=O)NO)CCCc1nc2ccccc2[nH]1` [DKFZ-805, 4-((3-(Benzimidazol-2-yl)propyl)(methyl)amino)-N-hydroxybutanamide], the IC50 at HDAC2 is 50.1 µM; at TwinStrep-GST-HDAC10, 0.00794 µM; at HDAC1 [4], about 39.8 µM; on HDAC8 [5], 10 µM; on HDAC6 [6], 12.6 µM; on HDAC3/NcoR2 complex, over 100 µM.
Consider `CN(CCCNC(=O)c1ccccc1)CCCC(=O)NO` [DKFZ-806, N-(3-((4-(Hydroxyamino)-4-oxobutyl)(methyl)amino)propyl)benzamide], for which the IC50 is 79.4 µM on HDAC2; 0.02 µM on TwinStrep-GST-HDAC10; 50.1 µM at HDAC1 [4]; 25.1 µM at HDAC8 [5]; 25.1 µM on HDAC6 [6]; over 100 µM at HDAC3/NcoR2 complex.

Source of the values: patent US20220151962A1, “NOVEL INHIBITORS OF HISTONE DEACETYLASE 10” (Deutsches Krebsforschungszentrum, priority 2019, published 2022).
